Source: patent publication US11685761B2, “Cyclic di-nucleotide compounds as sting agonists” (Merck Sharp & Dohme Corp., priority 2017, dated 2023)

Columns and labels:
[1] = test system: IFN-β secretion from THP1 cells; assay: IFN-β secretion in THP1 cell culture (5 h); format: cell-based, human; conditions: THP1 cells, 5 h incubation, compound at 30 μM, 30 uM cGAMP = 100%; for activation at 30 µM: Homo sapiens, THP-1, 5 h, read-out: % Effect at 30 μM relative to 2′3′-cGAMP
Description: The ability of compounds to stimulate the secretion of interferon-beta from THP1 cells was measured using a human IFN-β AlphaLISA kit (Perkin Elmer, Cat. No. AL265F). The basic protocol is as follows:
The cell viability and count was ascertained using a Beckman Coulter V-Cell XR cell counter. The cell suspension was centrifuged at 200×g for 5 min at RT. Cells were resuspended to a density of 0.8×10^6/mL in 37° C. assay medium. Subsequent liquid transfers were performed using either a Matrix electronic multichannel pipette or an Agilent Bravo Automated Liquid Handling Platform.
The assay was started by dispensing 40 μL of the previously prepared cell suspension into the wells of the plate containing compounds. After 5 h incubation at 37° C., 5% CO2 in a humidified atmosphere, the plate of cells and compounds was centrifuged at 200×g for 5 min at RT. […] To these supernatant-containing wells was added 10 μL of 5× Anti-Analyte Acceptor beads (50 μg/mL of AlphaLISA HiBlock Buffer) and incubated for 30 min at RT while shaking on an orbital plate shaker. To each well was added 10 μL of 5× Biotinylated Antibody Anti-analyte (5 nM in AlphaLISA HiBlock Buffer) and incubated on an orbital plate shaker for 60 min at RT or overnight at 4° C. To each well was added 25 μL of 2× SA-Donor beads (80 μg/mL in AlphaLISA HiBlock Buffer) and incubated for 30-45 min at RT in the dark while shaking on an orbital plate shaker. The plate was then read on a Perkin Elmer Envision (λex680 nm, λem=570 nm). The percent effect of the AlphaLISA signal at each compound concentration was calculated based on 30 uM cGAMP positive controls and 0.3% DMSO negative controls. The plot of percent effect versus the log of compound concentration was fit with a 4-parameter concentration response equation to calculate EC50 values.
Compounds of the disclosure were evaluated for IFN-β secretion in THP1 cell culture as described above.

[2] = target: T1, full-length WT STING (Homo sapiens, UniProt Q86WV6, H232R); assay: 3H-cGAMP filtration binding assay (WT STING); conditions: competition with tritiated cGAMP ligand; T. ni cell membranes overexpressing full-length WT STING
T1 construct: made in house; host or cells: Trichoplusia ni insect cells, baculovirus generated in Sf21; crude membranes
T1 sequence (Q86WV6 with tags, fused parts or gaps H232R): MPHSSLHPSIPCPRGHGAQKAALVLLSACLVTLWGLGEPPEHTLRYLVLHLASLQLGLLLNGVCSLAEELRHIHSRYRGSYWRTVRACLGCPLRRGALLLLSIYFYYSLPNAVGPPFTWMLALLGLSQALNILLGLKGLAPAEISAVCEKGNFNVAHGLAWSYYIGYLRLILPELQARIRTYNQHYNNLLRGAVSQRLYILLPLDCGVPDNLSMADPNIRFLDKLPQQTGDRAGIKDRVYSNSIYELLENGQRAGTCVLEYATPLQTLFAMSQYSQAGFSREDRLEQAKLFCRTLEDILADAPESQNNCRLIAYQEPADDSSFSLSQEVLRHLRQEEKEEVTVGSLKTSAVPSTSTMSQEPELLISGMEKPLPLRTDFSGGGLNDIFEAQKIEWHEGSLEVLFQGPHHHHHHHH
Description: (§1) The ability of compounds to bind STING is quantified by their ability to compete with tritiated cGAMP ligand for human STING receptor membrane using a radioactive filter-binding assay. The binding assay employs STING receptor obtained from Trichoplusia ni cell membranes (T. ni; Expression Systems, cat #94-002F, www.expressionsystems.com) overexpressing full-length WT STING and tritiated cGAMP ligand.
The basic WT STING filtration assay protocol is as follows:
16 nM of [^3H] c-GAMP ligand was prepared by diluting into assay buffer, and 50 uL of this working stock was manually added to each well of the assay plate. After ligand addition, 2 uL of either titrated test compound, DMSO control (Sigma #276855), or cold cGAMP control was added to the appropriate wells using a BIOMEK FX. The serially titrated compound was prepared on a Hamilton STARPlus CORE in a 96-well plate (Greiner, #651201) using a 1:3 ten-point dose response format. Following compound addition, a 2.2 ug/ml working concentration of STING membrane (SEQ. ID. No. 3) was prepared by diluting concentrated membrane into assay buffer (1×PBS; Invitrogen #SH30028.02) and douncing 7× using a manual tissue homogenizer (Wheaton, #357546). 148 uL of this prepared membrane was then manually added to each well of a 96-well deep-well polypropylene plate (Fisher Scientific, #12-566-121). Compound, ligand, and membrane then incubated for 60 min at RT before the contents of each assay plate were filtered through a 96-well GF/B filter plate (PerkinElmer, #6005250) using a TOMTEC MACH III Cell Harvester equipped with 20 mM HEPES buffer (Fisher Scientific, #BP299500). The filter plates were then dried at 55° C. for 30 min using a pressurized VWR oven before 30 uL of ULTIMA GOLD F scintillate was added to each well. Tritium levels for each reaction well were then measured using a PerkinElmer TopCount plate reader.
(§2) After normalization to controls, the percent activity for each compound concentration was calculated by measuring the amount of remaining radioactivity. The plot of percent activity versus the log of compound concentration was fit with a 4-parameter dose response equation to calculate EC50 values.

[3] = target: T2, full-length HAQ STING (Homo sapiens, UniProt Q86WV6, G230A/H232R/R293Q/R71H); assay: 3H-cGAMP filtration binding assay (HAQ STING); conditions: competition with tritiated cGAMP ligand; T. ni cell membranes overexpressing full-length HAQ STING
T2 construct: made in house; host or cells: Trichoplusia ni (Hi-Five) insect cells, baculovirus generated in Sf21; crude membranes
T2 sequence (Q86WV6 with tags, fused parts or gaps R71H/G230A/H232R/R293Q): as the sequence (Q86WV6 with tags, fused parts or gaps H232R) above, with R71H, G230A, R293Q counted along it
Description: The ability of compounds to bind STING is quantified by the ability to compete with tritiated cGAMP ligand for human STING receptor membrane using a radioactive filter-binding assay. The binding assay employs STING receptor obtained from Hi-Five cell membranes overexpressing full-length HAQ STING prepared in-house and tritiated cGAMP ligand also purified in-house.
as §1, with “HAQ” for “WT”
The basic HAQ STING filtration assay protocol is as follows:
The compounds were serially titrated by the Hamilton STARPlus CORE in a 96-well plate (Greiner, #651201) using a 1:3 ten-point dose response format. […] 148 uL of prepared membrane was then manually added to each well of a 96-well deep-well polypropylene plate (Fisher Scientific, #12-566-121). Following membrane addition, 2 uL of either titrated test compound, DMSO control (Sigma #276855), or cold cGAMP control was added to the appropriate wells using a BIOMEK FX. Compound and membrane then preincubated for 60 min at RT to allow compound binding to equilibrate. Following equilibration, 8 nM of [^3H] c-GAMP ligand was prepared by diluting into assay buffer, and 50 uL of this working stock was then manually added to each well of the assay plate. Plates were then incubated at RT for 60 min, and the contents of each assay plate were then filtered through a 96-well GF/B filter plate (PerkinElmer, #6005250) using a TOMTEC MACH III Cell Harvester equipped with 20 mM HEPES buffer (Fisher Scientific, #BP299500). The filter plates were then dried at 55° C. for 30 min using a pressurized oven before 30 uL of ULTIMA GOLD F scintillate was added to each well. Tritium levels for each reaction well were then measured using a PerkinElmer TopCount plate reader.
as §2

SMILES	EC50 [2]	EC50 [3]	activation at 30 µM [1]	% Effect at 30 μM relative to 2′3′-cGAMP [1]
Nc1ncnc2c1ncn2[C@@H]1O[C@@H]2CO[P@@](=O)(S)O[C@@H]3[C@H](O)[C@@H](CO[P@@](=O)(S)O[C@H]2[C@H]1O)O[C@H]3n1ccc(=O)n2ccnc12 (single isomer, unassigned) [Example 1]	1640 nM	77 nM	143%	–
Nc1ncnc2c1ncn2[C@@H]1O[C@@H]2COP(=O)(S)O[C@@H]3[C@H](O)[C@@H](COP(=O)(S)O[C@H]2[C@@H]1F)O[C@H]3n1cnc2c(=O)n3cc[nH]c3nc21 (single isomer, unassigned) [Example 15]	43 nM	–	–	318%
Nc1ncnc2c1ncn2[C@@H]1O[C@@H]2COP(=O)(S)O[C@@H]3[C@H](O)[C@@H](COP(=O)(S)O[C@H]2[C@@H]1F)O[C@H]3n1cnc2c(=O)n3cc[nH]c3nc21 (single isomer, unassigned) [Example 16]	90 nM	–	–	281%
Nc1ncnc2c1ncn2[C@@H]1O[C@@H]2CO[P@@](=O)(S)O[C@@H]3C[C@@H](CO[P@](=O)(S)O[C@H]2[C@@H]1F)O[C@H]3n1ccc(=O)n2ccnc12 (single isomer, unassigned) [Example 20]	83 nM	15 nM	169%	–
Nc1nc2c(ncn2[C@@H]2O[C@@H]3CO[P@@](=O)(S)O[C@H]4C[C@H](n5ccc6c(=O)[nH]cnc65)O[C@@H]4CO[P@@](=O)(S)O[C@@H]2C3)c(=O)[nH]1 (single isomer, unassigned) [Example 38]	393 nM	1 nM	109%	–
Nc1ncnc2c1ncn2[C@@H]1O[C@@H]2CO[P@@](=O)(S)O[C@@H]3[C@H](O)[C@@H](CO[P@](=O)(S)O[C@H]2[C@H]1O)O[C@H]3n1ccc(=O)n2ccnc12 [Example 2, 8-[(2S,5R,7R,8R,10R,12aR,14R,15R,15aS,16R)-14-(6-amino-9H-purin-9-yl)-15,16-dihydroxy-2,10-dioxido-2,10-disulfanyloctahydro-12H-5,8-methanofuro[3,2-l][1,3,6,9,11,2,10]pentaoxadiphospha-cyclotetradecin-7-yl]imidazo[1,2-a]pyrimidin-5(8H)-one]	32 nM	2 nM	44%	–
Nc1ncnc2c1ncn2[C@@H]1O[C@@H]2COP(=O)(S)O[C@@H]3[C@H](O)[C@@H](COP(=O)(S)O[C@H]2[C@@H]1F)O[C@H]3n1cnc2c(=O)n3c(nc21)NC(=O)C3 (stereo partly drawn) [Example 14, 3-[(5R,7R,8R,12aR,14R,15S,15aR,16R)-14-(6-amino-9H-purin-9-yl)-15-fluoro-16-hydroxy-2,10-dioxido-2,10-disulfanyloctahydro-12H-5,8-methanofuro[3,2-l][l,3,6,9,11,2,10]pentaoxadiphosphacyclotetradecin-7-yl]-3H-imidazo[1,2-a]purine-6,9(5H,7H)-dione]	433 nM	–	12%	–

Continued, in another order:

EC50 [2]	EC50 [3]	SMILES	activation at 30 µM [1]	% Effect at 30 μM relative to 2′3′-cGAMP [1]
2830 nM	5 nM	Nc1nc2c(ncn2[C@@H]2O[C@@H]3COP(=O)(S)O[C@H]4[C@H](F)[C@H](n5ccc6c(=O)[nH]cnc65)O[C@@H]4COP(=O)(S)O[C@@H]2[C@@H]3F)c(=O)[nH]1 (single isomer, unassigned) [Example 40]	–	150%
46 nM	1 nM	Nc1nc2c(nnn2[C@@H]2O[C@@H]3COP(=O)(S)O[C@H]4C[C@H](n5ccc6c(=O)[nH]cnc65)O[C@@H]4COP(=O)(S)O[C@@H]2C3)c(=O)[nH]1 (single isomer, unassigned) [Example 42]	–	72%
148 nM	37 nM	Nc1nc2c(nnn2[C@@H]2O[C@@H]3COP(=O)(S)O[C@H]4C[C@H](n5ccc6c(=O)[nH]cnc65)O[C@@H]4COP(=O)(S)O[C@@H]2C3)c(=O)[nH]1 (single isomer, unassigned) [Example 43]	–	120%
2400 nM	16 nM	Nc1ncnc2c1ncn2[C@@H]1O[C@@H]2COP(=O)(S)O[C@H]3[C@H](F)[C@H](n4ccc5c(=O)[nH]cnc54)O[C@@H]3COP(=O)(S)O[C@@H]1C2 (single isomer, unassigned) [Example 46]	–	166%
756 nM	1 nM	Nc1nc2c(nnn2[C@@H]2S[C@@H]3COP(=O)(S)O[C@H]4[C@H](F)[C@H](n5ccc6c(=O)[nH]cnc65)O[C@@H]4COP(=O)(S)O[C@@H]2[C@@H]3F)c(=O)[nH]1 (single isomer, unassigned) [Example 49]	–	163%
9130 nM	4 nM	Nc1nc2c(nnn2[C@@H]2S[C@@H]3COP(=O)(S)O[C@H]4[C@H](F)[C@H](n5ccc6c(=O)[nH]cnc65)O[C@@H]4COP(=O)(S)O[C@@H]2[C@@H]3F)c(=O)[nH]1 (single isomer, unassigned) [Example 50]	–	109%
253 nM	167 nM	Nc1nc2c(ncn2[C@@H]2O[C@@H]3COP(=O)(S)O[C@H]4C[C@H](n5cc(F)c6c(=O)[nH]cnc65)O[C@@H]4COP(=O)(S)O[C@@H]2[C@@H]3F)c(=O)[nH]1 (single isomer, unassigned) [Example 53]	85%	–
